Reference: BindingDB's records for doi:10.1021/jm200288r (National Institute On Drug Abuse-Intramural Research Program, 2011)

Experiment: Antagonist activity at human dopamine D2 receptor expressed in CHOp cells assessed as inhibition of quinpirole-induced mitogenesis

IC50 | Compound
421 nM | COc1ccccc1N1CCN(CC(F)CCNC(=O)c2cc3ccccc3s2)CC1 (configuration not stated) [N-(3-Fluoro-4-(4-(2-methoxyphenyl)piperazin-1-yl)butyl)-benzo[b]thiophene-2-carboxamide]
1600 nM | COc1ccc2oc(C(=O)NCCC(F)CN3CCN(c4cccc(Cl)c4Cl)CC3)cc2c1 (configuration not stated) [N-(4-(4-(2,3-Dichlorophenyl)piperazin-1-yl)-3-fluorobutyl)-5-methoxybenzofuran-2-carboxamide]
